Reference: patent US8455485B2, “Pyrazolo pyridine derivatives as NADPH oxidase inhibitors” (Genkyotex SA, priority 2008, dated 2013)

How the values were obtained:
Format in all cases: cell-based, human
NOX activity = test: Amplex Red measurement of extracellular hydrogen peroxide (NOX activity) using DMSO-differentiated HL60 cells; settings: for Inhibition (%) of NOX activity: Amplex red, DMSO-differentiated HL60 cells, compound concentration not stated
Experimental: Human acute myeloid leukemia cell line HL-60 was cultured in RPMI 1640 (Invitrogen) supplemented with 10% heat-inactivated calf serum, 2 mM glutamine, 100 U/mL penicillin (Sigma), and 100 μg streptomycin (Sigma) at 37° C. under a humidified atmosphere of 5% CO2. HL60 differentiation to the neutrophil phenotype was triggered by adding Me2SO (final concentration 1.25% v/v for 6 days) to the culture medium.
Extracellular hydrogen peroxide was measured using Amplex UltraRed (Molecular Probes). Cells were trypsinized (1× Trypsin-EDTA), collected by centrifugation, and resuspended in HBSS supplemented with 1% glucose. Cells were seeded into black 96-well plates at a density of 50′000 cells in 200 μl testing buffer (HBSS 1% glucose containing 0.005 U/mL horseradish peroxidase (Roche) and 50 μM Amplex Red in the presence or absence of compounds according to the invention. As a control, DPI was included at a final concentration of 10 μM The plates were placed in the fluorescent Optima Fluorescent plate reader and kept at 37° C. during 20 min Fluorescence was measured for […] with excitation and emission wavelengths of 544 nm and 590 nm respectively. NOX activities were expressed as % of the activity in control cells. Residual activity of DPI-treated cells was usually <10%.
The Table 2 below summarizes the percentage of inhibition of NOX activity as measured by Amplex red using DMSO-differentiated HL60 cells as described above: […]

NOX activities [1] = test: H2DCF-DA (DCF fluorescence) ROS measurement in TGF-β stimulated HUVEC
Experimental: HUVEC are cultured in endothelial basal medium supplemented with hydrocortisone (1 μg/mL, CalbioChem), bovine brain extract (12 μg/mL), gentamicin (50 μg/mL, CalbioChem), amphotericin B (50 ng/mL, CalBioChem EGF (10 ng/mL, and 10% FCS until the fourth passage. When the fifth passage was started, cells were cultured with a lower concentration of FCS (2%) in the absence of EGF, if not indicated otherwise. All experiments were done with cells of the fifth passage. The cells were incubated with OxLDL (oxidized low-density lipoprotein) or its buffer as control for 24 h, before detection of O2^− formation.
HUVEC were plated on coverslips and made quiescent overnight in 0.5% BSA before stimulation with TGF-β. Cells were loaded for 10 minutes with 5 μM CM-H2DCFDA in phenol-red-free medium in the dark and then treated with TGF-β (R&D Systems) in the presence or absence of compounds according to the invention. Cells were then visualized by immunofluorescence microscopy after fixation and staining of the nuclei with DAPI or examined live using confocal microscopy. DCF fluorescence was visualized at an excitation wavelength of 488 nm and emission at 515 to 540 nm. […] For calculation, the absorbance at […] was normalized to absorbance at […] for each individual well. […] NOX activities were expressed as % of the activity in control cells. […]

NOX activities [2] = test: Nitroblue tetrazolium (NBT) test of intracellular and extracellular superoxide in cells; settings: DPI at a final concentration of 10 μM
Experimental: Intracellular and extracellular superoxide was measured by a colorimetric technique using a quantitative nitroblue tetrazolium (NBT) test. SOD-inhibitable conversion of NBT to formazan, a fine blue precipitate, in the presence of superoxide anion was measured using Fluostar Optima spectrometer (BMG labtech). Following incubation with appropriate stimuli, cells were trypsinized (1× Trypsin-EDTA), collected by centrifugation, and washed with PBS to remove medium. 5×10^5 cells were plated on 48-well plates and incubated in Hank's balanced salt solution containing 0.5 mg/mL NBT with or without 800 U/mL SOD in the presence or absence of compounds according to the invention. As a control, DPI was included at a final concentration of 10 μM. After 2.5 h, cells were fixed and washed with methanol to remove non reduced NBT. The reduced formazan was then dissolved in 230 μl of 2M potassium hydroxide and in 280 μl of dimethylsulfoxide. The absorption was measured at 630 nm. For calculation, the absorbance at 630 nm was normalized for each individual well. The mean of the four blank values was subtracted from each corrected value for each time point. NOX activities were expressed as % of the activity in control cells. Residual activity of DPI-treated cells was usually <10%.

NOX activities [3] = test: Chemiluminescence (luminol) measurement of ROS in cells
Experimental: ROS was measured using the chemiluminescent probe luminol. Cells were cultured and plated as for Amplex Red except that the Amplex Red agent was replaced by 10 μg/mL luminol (Sigma 09235). Light emission was recorded continuously at 37° C. for 60 minutes using the luminescence function of the FluoStar Optima fluorescent plate reader. The mean of the four blank values was subtracted from each corrected value for each time point. NOX activities were expressed as % of the activity in control cells. Residual activity of DPI-treated cells was usually <10%.

| Compound | Inhibition (%) of NOX activity (NOX activity) | other results |
| --- | --- | --- |
| O=c1c2c(COCc3ccccc3)n(CC3CCCNC3)c(=O)cc2[nH]n1-c1ccccc1Cl (stereo not drawn) [Compound 130, 4-[(benzyloxy)methyl]-2-(2-chlorophenyl)-5-(piperidin-3-ylmethyl)-1H-pyrazolo[4,3-c] pyridine-3,6(2H,5H)-dione] | 80% | – |
| Cn1c(COCc2cccc(Cl)c2)c2c(=O)n(-c3ccccc3Cl)[nH]c2cc1=O [Compound 139, 4-{[(3-chlorobenzyl)oxy]methyl}-2-(2-chlorophenyl)-5-methyl-1H-pyrazolo[4,3-c] pyridine-3,6(2H,5H)-dione] | 76% | – |
| COc1cccc(CN(C)Cc2c3c(=O)n(-c4ccccc4Cl)[nH]c3cc(=O)n2C)c1 [Compound 143, 2-(2-chlorophenyl)-4-{[(3-methoxybenzyl) (methyl)amino]methyl}-5-methyl-1H-pyrazolo [4,3-c]pyridine-3,6 (2H,5H)-dione] | 82% | – |
| CN(Cc1cccnc1)Cc1c2c(=O)n(-c3ccccc3Cl)[nH]c2cc(=O)n1C [Compound 147, 2-(2-chlorophenyl)-5-methyl-4-{[methyl (pyridin-3-ylmethyl)amino]methyl}-1H-pyrazolo[4,3-c] pyridine-3,6(2H,5H)-dione] | 80% | – |
| COc1cccc(N2CCN(Cc3c4c(=O)n(-c5ccccc5Cl)[nH]c4cc(=O)n3C)CC2)c1 [Compound 163, 2-(2-chlorophenyl)-4-{[4-(3-methoxyphenyl)piperazin-1-yl]methyl}-5-methyl-1H-pyrazolo[4,3-c]pyridine-3,6(2H,5H)-dione] | 80% | – |
| c1ccc([I+]c2ccccc2)cc1 [DPI, Diphenyl-iodonium] | – | Residual activity of DPI-treated cells (NOX activity as % of the activity in control cells) (NOX activities [1]): < 10%; Residual activity of DPI-treated cells (NOX activity as % of the activity in control cells) (NOX activity; Amplex Red, DPI at a final concentration of 10 μM): < 10%; Residual activity of DPI-treated cells (NOX activity as % of the activity in control cells) (NOX activities [2]): < 10%; Residual activity of DPI-treated cells (NOX activity as % of the activity in control cells) (NOX activities [3]): < 10% |
